Measured values published in patent US20040006070A1, “Intraspinal continuous infusion of midazolam hydrochloride for the treatment of pain” (priority 2002, published 2004).
Read-outs that look alike come from different tables or passages of the source.

How the values were obtained:
[1] = Physiological data: indirect blood pressure, pulse, rectal temperature, weight; type: in vivo, sheep; details: sheep #980 Dudley
Text: Daily rectal temperatures were taken and any behavioral/motor changes were noted. Gait monitoring will be conducted as described below based on a four-grade scale for the evaluation of behavioral and motor changes. Grade 0: animal standing, sheep is able to rise and ambulate without any difficulty. Grade 1: Shuffling of either rear leg or slight limp; slight distortion of normal spinal axis. Grade 2: Loss of righting reflex in one of the rear legs, sheep able to stand without assistance, but with some difficulty. Grade 3: Inability to maintain standing posture; attempts to help animal stand are unsuccessful.
Indirect blood pressure, pulse recording, pain testing (mechanical stimulus device, cold and warm water baths see description in procedure) and weight were taken on days 1, 3, 7, 15, 22, 29, 36, and 43. Venous blood samples (15 ml drawn from the jugular vein with Vacutainer brand blood collection tubes) for complete blood count, electrolytes, and extended blood chemistry were drawn on days 1, 15, and 43 (mild procedure only light hand restraint necessary).

[2] = test system: neuropathic pain model in the sheep; assay: Neuropathic pain model in sheep, behavior monitoring (Observer 3.0) with visual analog pain score; type: in vivo
Text: The neuropathic pain model in the sheep is created by placing four tight ligatures around the median, radial, or ulnar nerve (or a combination thereof) with 0-chromic gut suture. This method produces a chronic painful peripheral mononeuropathy which may be related to those conditions seen in humans with causalgia and reflex sympathetic dystrophy.
To evaluate animal behavior, the Observer 3.0 software (Noldus Information Technology, The Netherlands) was used to aid docmentation of a daily record of multiple traits. […] The behavior was then interpreted into a visual analog pain score (VAS), where 0 represents no pain and 100 represents severe pain.
Approximately three days prior to surgery each sheep will undergo a 15-minute baseline behavior evaluation. The observations made in this evaluation include, a computerized behavior software recording (the Observer) for 15minutes—gait monitoring—and recording of pain perception via visual analog scale-using the Observer. In some animals, recording of vital signs (blood pressure, heart rate, respirations per minute) will be performed using the Observer. Baseline values for pain perception are recorded via the mechanical stimulus device and/or behavior monitoring will also be performed at this time.
The sheep will be observed daily postoperatively. […] Observations of neuropathic pain development include changes in ambulation, alertness, appetite, urination, defecation, herding activity, body temperature and pain behaviors. This daily behavior is recorded utilizing the observer (an observational software system).

[3] = cited from earlier work
[4] = Toxicity in neuropathic pain sheep: clinical signs, necropsy, histopathology; type: in vivo; details: sheep #604 Clint
Text: Animals will be observed daily for any signs of clinical toxicity such as limping and loss of appetite. At necropsy the spinal cord will be examined for any gross changes. Histopathologic evaluation will be performed on all animals after drug studies are complete. These examinations will detect any neurotoxicity that may be present due to the spinal infusion of midazolam.

[5] = sheep #980 Dudley, MDZ 2 mg per day
[6] = sheep #980 Dudley, MDZ 2 mg per day, daily values
[7] = sheep #980 Dudley, MDZ 3 mg per day
[8] = sheep #980 Dudley, MDZ 3 mg per day, daily values, first and second course
[9] = sheep #980 Dudley, MDZ 4 mg per day
[10] = sheep #980 Dudley, MDZ 5 mg per day, daily values
[11] = sheep #980 Dudley, MDZ 6 mg per day
[12] = sheep #980 Dudley, MDZ 6 mg per day, daily values
[13] = sheep #980 Dudley, MS 1 mg per day, daily values
[14] = sheep #980 Dudley, MS 2 mg per day
[15] = sheep #980 Dudley, MS 3 mg per day, daily values
[16] = sheep #980 Dudley, MS 4 mg per day
[17] = sheep #980 Dudley, MS 5 mg per day
[18] = sheep #980 Dudley, MS 5 mg per day, daily values
[19] = sheep #980 Dudley, MS 6 mg per day
[20] = sheep #980 Dudley, MS 6.5 mg per day, daily values

Cc1ncc2n1-c1ccc(Cl)cc1C(c1ccccc1F)=NC2 [MDZ]
Resp per min. ([1]; MDZ 4 mg per day): 58 per min.
Other behavior: Defaecation [2, 5]: 0.65%
Other behavior: Eating lying [2, 5]: 1.69%
Other behavior: Ruminating laying down [2, 5]: 98.28%,
Other behavior: Ruminating standing [2, 5]: 0.48%
Grind teeth [2, 6]: 0%
Other behavior [2, 6]: 0
Other behavior: Defaecation [2, 7]: 0.49%
Other behavior: Drinking [2, 7]: 0.6%
Other behavior: Eating lying [2, 7]: 1.14%
Grind teeth [2, 8]: 0%
Holding unoperated leg off the ground [2, 8]: 0%
Other behavior [2, 8]: 0
Eating [2, 9]: 36.49%
Grind teeth [2, 9]: 0%
Holding operated leg off the ground [2, 9]: 2.78%
Holding unoperated leg off the ground [2, 9]: 0.36%
Laying down [2, 9]: 0%
Not bearing weight on operated leg [2, 9]: 29.65%
Observe Operated leg [2, 9]: 1.51%
Other behavior: Bleating [2, 9]: 0.76%
Pain Score [2, 9]: 50%
Standing [2, 9]: 0.52%
Walking [2, 9]: 1.09%
Grind teeth [2, 10]: 0%
Holding unoperated leg off the ground [2, 10]: 0%
Laying down [2, 10]: 0%
Observe Operated leg [2, 10]: 0%
Pain Score [2, 10]: 85%
Standing [2, 10]: 0%
Other behavior: Defaecation [2, 11]: 0.94%
Other behavior: Eating lying [2, 11]: 0.21%
Other behavior: Pulling wool [2, 11]: 0.26%,
Grind teeth [2, 12]: 0%
Holding unoperated leg off the ground [2, 12]: 0%
Laying down [2, 12]: 0%
Other behavior [2, 12]: 0
Standing [2, 12]: 0%

CN1CC[C@]23c4c5ccc(O)c4O[C@H]2[C@@H](O)C=C[C@H]3[C@H]1C5.CN1CC[C@]23c4c5ccc(O)c4O[C@H]2[C@@H](O)C=C[C@H]3[C@H]1C5.O=S(=O)(O)O [MS]
Resp per min. ([1]; MS 2 mg per day): 22 per min.
Resp per min. ([1]; MS 4 mg per day): 64 per min.
Resp per min. ([1]; MS 6 mg per day): 64 per min.
Other behavior: Drink ([2]; sheep #980 Dudley, MS 1 mg per day): 0.5%
Laying down [2, 13]: 0%
Other behavior [2, 13]: 0
Eating [2, 14]: 0%
Grind teeth [2, 14]: 1.39%
Holding operated leg off the ground [2, 14]: 15.88%
Holding unoperated leg off the ground [2, 14]: 0%
Laying down [2, 14]: 0%
Not bearing weight on operated leg [2, 14]: 64.74%
Observe Operated leg [2, 14]: 0.19%
Other behavior [2, 14]: 0
Pain Score [2, 14]: 90%
Standing [2, 14]: 17.34%
Walking [2, 14]: 0.47%
Other behavior: Ruminating standing ([2]; sheep #980 Dudley, MS 3 mg per day): 2.69%
Holding unoperated leg off the ground [2, 15]: 0%
Laying down [2, 15]: 0%
Other behavior [2, 15]: 0
Pain Score [2, 15]: 85%
Standing [2, 15]: 0%
Eating [2, 16]: 4.72%
Grind teeth [2, 16]: 0%
Holding operated leg off the ground [2, 16]: 5.2%
Holding unoperated leg off the ground [2, 16]: 0%
Laying down [2, 16]: 0%
Not bearing weight on operated leg [2, 16]: 69.53%
Observe Operated leg [2, 16]: 0%
Other behavior: Ruminating standing [2, 16]: 15.2%
Pain Score [2, 16]: 83%
Standing [2, 16]: 0%
Walking [2, 16]: 5.36%
Other behavior: Bleating [2, 17]: 0.98%
Other behavior: Eating lying [2, 17]: 0.7%,
Other behavior: Pulling wool [2, 17]: 0.28%,
Other behavior: pawing ground [2, 17]: 0.85%
Grind teeth [2, 18]: 0%
Standing [2, 18]: 0%
Eating [2, 19]: 0%
Grind teeth [2, 19]: 0%
Holding operated leg off the ground [2, 19]: 9.77%
Holding unoperated leg off the ground [2, 19]: 0.52%
Laying down [2, 19]: 43.57%
Not bearing weight on operated leg [2, 19]: 35.43%
Observe Operated leg [2, 19]: 0.66%
Other behavior [2, 19]: 0
Pain Score [2, 19]: 80%
Standing [2, 19]: 0.99%
Walking [2, 19]: 9.07%
Other behavior: Eating lying ([2]; sheep #980 Dudley, MS 6.5 mg per day): 9.31%
Holding unoperated leg off the ground [2, 20]: 0%
Other behavior [2, 20]: 0

COc1ccc2c3c1O[C@H]1C(=O)CC[C@@]4(O)[C@@H](C2)N(C)CC[C@]314 [Oxycodone]
approximate equipotent dose, IT ([3]; route IT): 10
approximate equipotent dose, IV ([3]; route IV): 200
approximate equipotent dose, PO ([3]; route PO): 600

CN1CC[C@]23c4c5ccc(O)c4O[C@H]2[C@@H](O)C=C[C@H]3[C@H]1C5.O=S(=O)(O)O [morphine, morphine sulfate]
approximate equipotent dose, IV ([3]; in vivo, iv): 200
approximate equipotent dose, PO ([3]; in vivo, po): 600
approximate equipotent dose, IT ([3]; in vivo): 10
Pain Score ([2]; Sheep #604 Clint, 6 mg Morphine per day intrathecal, first infusion period, Dec. 7, 2001, day of study 0): 60%
Pain Score ([2]; Sheep #604 Clint, 6 mg Morphine per day intrathecal, first infusion period, Dec. 8, 2001, day of study 1): 60%
Pain Score ([2]; Sheep #604 Clint, 6 mg Morphine per day intrathecal, first infusion period, Dec. 9, 2001, day of study 2): 60%
Pain Score ([2]; Sheep #604 Clint, 6 mg Morphine per day intrathecal, first infusion period, Dec. 11, 2001, day of study 4): 45%
Pain Score ([2]; Sheep #604 Clint, 6 mg Morphine per day intrathecal, first infusion period, Dec. 12, 2001, day of study 5): 30%
Pain Score ([2]; Sheep #604 Clint, 6 mg Morphine per day intrathecal, first infusion period, Dec. 13, 2001, day of study 6): 35%
Pain Score ([2]; Sheep #604 Clint, 6 mg Morphine per day intrathecal, first infusion period, Dec. 14, 2001, day of study 7): 40%
Pain Score ([2]; Sheep #604 Clint, 6 mg Morphine per day intrathecal, first infusion period, Dec. 15, 2001, day of study 8): 50%
Pain Score ([2]; Sheep #604 Clint, 6 mg Morphine per day intrathecal, first infusion period, Dec. 16, 2001, day of study 9): 40%
Pain Score ([2]; Sheep #604 Clint, 6 mg Morphine per day intrathecal, first infusion period, Dec. 17, 2001, day of study 10): 33%
Pain Score ([2]; Sheep #604 Clint, 6 mg Morphine per day intrathecal, first infusion period, Dec. 18, 2001, day of study 11): 35%
Pain Score ([2]; Sheep #604 Clint, 6 mg Morphine per day intrathecal, first infusion period, Dec. 19, 2001, day of study 12): 35%
Pain Score ([2]; Sheep #604 Clint, 6 mg Morphine per day intrathecal, first infusion period, Dec. 20, 2001, day of study printed 0, changed to saline at 1:30 PM): 33%
Pain Score ([2]; Sheep #604 Clint, 6 mg Morphine per day intrathecal, second infusion period after saline, Dec. 29, 2001, day of study 1): 50%
Pain Score ([2]; Sheep #604 Clint, 6 mg Morphine per day intrathecal, second infusion period after saline, Dec. 30, 2001, day of study 2): 40%
Pain Score ([2]; Sheep #604 Clint, 6 mg Morphine per day intrathecal, second infusion period after saline, Dec. 31, 2001, day of study 3): 38%
Pain Score ([2]; Sheep #604 Clint, 6 mg Morphine per day intrathecal, second infusion period after saline, Jan. 1, 2002, day of study 4): 40%
Pain Score ([2]; Sheep #604 Clint, 6 mg Morphine per day intrathecal, second infusion period after saline, Jan. 2, 2002, day of study 5): 30%
Pain Score ([2]; Sheep #604 Clint, 6 mg Morphine per day intrathecal, second infusion period after saline, Jan. 3, 2002, day of study 6): 33%
Pain Score ([2]; Sheep #604 Clint, 6 mg Morphine per day intrathecal, second infusion period after saline, Jan. 4, 2002, day of study 7): 30%
Pain Score ([2]; Sheep #604 Clint, 6 mg Morphine per day intrathecal, second infusion period after saline, Jan. 5, 2002, day of study 8): 30%
Pain Score ([2]; Sheep #604 Clint, 6 mg Morphine per day intrathecal, second infusion period after saline, Jan. 6, 2002, day of study 9): 30%
Pain Score ([2]; Sheep #604 Clint, 6 mg Morphine per day intrathecal, second infusion period after saline, Jan. 7, 2002, day of study 10): 30%
Pain Score ([2]; Sheep #604 Clint, 6 mg Morphine per day intrathecal, second infusion period after saline, Jan. 8, 2002, day of study 11): 30%
Pain Score ([2]; Sheep #604 Clint, 6 mg Morphine per day intrathecal, second infusion period after saline, Jan. 9, 2002, day of study 12, pump then refilled with saline at 9:44 AM): 15%
average pain score ([2]; sheep #604 Clint, first 13 days of infusion at 6 mg/day): 43%
average pain scores ([2]; sheep #604 Clint, later infusions begun with either morphine or saline): 30-50%
average pain score ([2]; sheep #980 Dudley, 1 mg/day gradually increased to 6 mg/day): 76%
Pain Score ([2]; sheep #980 Dudley, 6.5 mg/day after 13 days of treatment): 20%
clinical behavior during therapy ([4]; intrathecal): restlessness, pain behaviors such as biting itself near the area of the catheter tip, and frequently laying down
necropsy, spinal cord ([4]; lesion 0.8 cm (L)×0.5 cm (W)×0.3 cm (Depth)): cavitated lesion in the spinal cord in front of the catheter tip
